According to PubChem BioAssay (NCI):
Where “and” joins values, the source holds several entries; their conditions need not be identical. Equal values may be shown once.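 Method: 48-hour compound exposure of cells in 96-well plates, five concentrations, linear interpolation of endpoints. GI50 = concentration required for 50% inhibition of growth. The concentration for full growth arrest is given as TGI.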

Experiments:
Assay in all cases: NCI tumour cell line growth inhibition, 48 h
[1] = system: MCF7 breast
[2] = system: RPMI-8226 leukemia
[3] = system: LOX IMVI melanoma
[4] = system: SNB-75 CNS
[5] = system: CAKI-1 renal
[6] = system: NCI-H522 lung
[7] = system: SN12C renal
[8] = system: OVCAR-5 ovarian
[9] = system: NCI/ADR-RES ovarian
[10] = system: NCI-H23 lung

| SMILES | TGI [1] | TGI [2] | TGI [3] [µM] | TGI [4] [µM] | TGI [5] [µM] | TGI [6] [µM] | TGI [7] | TGI [8] | TGI [9] [µM] | TGI [10] [µM] | GI50 [1] | GI50 [2] [µM] | GI50 [3] [µM] | GI50 [4] | GI50 [5] [µM] | GI50 [6] [µM] | GI50 [7] | GI50 [8] [µM] | GI50 [9] [µM] | GI50 [10] |
| --- | --- | --- | --- | --- | --- | --- | --- | --- | --- | --- | --- | --- | --- | --- | --- | --- | --- | --- | --- | --- |
| O=C(O)CSCC(=O)c1ccccc1 | > 100 µM | > 100 µM | > 100 | > 100 | > 100 | > 100 | > 100 µM | > 100 µM | > 100 | > 100 |  |  |  |  |  |  |  |  |  |  |
| O=C(O)C1CCCN1Cc1c[nH]c2ccccc12 (centres undefined) | > 100 µM | > 100 µM | > 100 | > 100 | > 100 | > 100 | > 100 µM | > 100 µM | > 100 | > 100 |  |  |  |  |  |  |  |  |  |  |
| CCOC(=O)c1sc2ncn(Cc3cccc(Cl)c3)c(=O)c2c1C | 29.2 µM | 18.4 µM | 27.8 | 29.9 | 19.2 | 23.3 | 28.6 µM | 31.2 µM | 20.7 | 27.9 | 15.8 µM | 5.58 | 14.6 | 16.4 µM | 6.19 | 10.9 | 15.3 µM | 17.4 | 7.78 | 14.7 µM |
| Cc1cc(S(=O)(=O)Nc2nnc(-c3ccco3)c(-c3ccco3)n2)c(SCc2ccccc2)cc1Cl | 61.9 µM | 61.4 µM | 45.4 | 56.2 | 55.8 | 65.7 |  | 49.8 µM | > 100 | 46.9 | 26.7 µM | 18.4 | 24.7 | 32.1 µM | 28.5 | 24.8 |  | 25.6 | 39.4 | 22.8 µM |
| O=C(CSc1nc2ccc([N+](=O)[O-])cc2[nH]1)Nc1cccc(C(F)(F)F)c1 | 9.44 µM | > 23.6 µM | 13 | 7.81 | 7.15 | 9.05 | 10.6 µM | 11.1 µM | 8.75 | 8.81 | 1.95 µM | 1.37 | 2.95 | 1.61 µM | 1.76 | 1.55 | 2.18 µM | 2.62 | 2.29 | 1.98 µM |
| CC(=O)C(C(=N)C#N)C(=O)Nc1ccccc1 (centres undefined) | > 100 µM | > 100 µM | > 100 | > 100 | > 100 | > 100 | > 100 µM | > 100 µM | > 100 | > 100 |  |  |  |  |  |  |  |  |  |  |
| Cc1c(C(=O)CCl)c(=O)n(-c2ccccc2)n1C | 11.6 µM | 4.62 µM | 14.3 | 29.5 | 12 | 3.23 | 28.6 µM | 27.1 µM | 27.3 | 21.1 | 2.73 µM | 1.07 | 3.27 | 10.9 µM | 3.2 | 1.46 | 5.93 µM | 13.3 | 5.53 | 5.17 µM |
| O=C1c2cccnc2-c2nc(-c3ccccn3)cc3c2c1nc1ccccc13 | 2.22 µM | 1.03 µM | 1.52 | 3.81 | 0.781 | 0.32 | 1.19 µM | 3.43 µM | 0.658 | 1.78 | 0.463 µM | 0.253 | 0.287 | 1.69 µM | 0.119 | 0.141 | 0.21 µM | 0.745 | 0.208 | 0.374 µM |
| Clc1ccc(Nc2ccnc(NCCNc3ccnc4cc(Cl)ccc34)n2)cc1 | 2.59 µM | 3.73 µM | 2.62 | 2.47 | 3.01 | 3.27 | 3.47 µM | 2.45 µM | 3.51 | 2.91 | 1.08 µM | 1.38 | 1.29 | 1.22 µM | 1.59 | 1.7 | 1.51 µM | 1.16 | 1.61 | 1.44 µM |
| Cc1c2ncccc2c(C)c2c1[nH]c1ccc(O)cc12 | 15.2 µM and 50 µM | 8.78 µM and 15.4 µM | 6.61 |  | 15.8 | 19.6 | 14.2 µM and 42.5 µM | 24.4 µM and 120 µM | 21 |  | 5.95 µM and 8.58 µM | 3.07 | 2.39 | 7.45 µM and 15.2 µM |  |  | 5.99 µM and 5.39 µM | 46.6 | 4.08 | 11.9 µM and 19 µM |
| Cc1c(C(=O)N/N=C/c2ccc(O)cc2)nnn1-c1ccnc2c(C(F)(F)F)cccc12 | > 100 µM | > 100 µM | > 100 | 40 | > 100 | > 100 | 83.3 µM | > 100 µM | > 100 | > 100 | 9.12 µM | > 100 | 46.8 | 19.1 µM | > 100 | 49.9 | 16.3 µM | > 100 | > 100 | 29.3 µM |
| Cn1cc(-c2nc(-c3c[nH]c4ncccc34)cs2)c2cc(Cl)ccc21 | > 100 µM | > 100 µM | > 100 | > 100 | 9.22 | > 100 | 94.2 µM | > 100 µM | > 100 | > 100 | 1.16 µM | 4.87 | 3.61 | 3.52 µM | 2.65 | 5.56 | 4.72 µM | 1.61 | 3.94 | 5.01 µM |
| COc1ccc(C(=O)c2cc(OC)c(OC)c(OC)c2)cc1/C=C/C(=O)c1ccc(O)cc1 | 15.9 µM | 82.9 µM | 3.9 | 4.77 | 17.3 | 15.8 | 12.6 µM | 25.1 µM | 8.09 | 10.2 | 3.16 µM | 1.56 | 1.75 | 1.62 µM | 3.07 | 2.69 | 2.66 µM | 11.2 | 2.68 | 2.93 µM |
| CC1=C(C(=O)Nc2ccc(F)c(Cl)c2)C(c2cccc(O)c2)NC(=S)N1 (centres undefined) | > 50 µM | > 50 µM | 41 | 41.3 | > 50 | > 50 | 39.2 µM | > 50 µM | > 50 | > 50 | 17.5 µM | 30.1 | 13.7 | 14.4 µM | > 50 | 12.4 | 12.7 µM | 17 | > 50 | 19.2 µM |
| CC(C)(C)[Si](C)(C)OC1[C@@H](O[Si](C)(C)C(C)(C)C)[C@@H](CNC(=O)NC(=O)NC(=O)CI)O[C@H]1n1cnc2c(NC(=O)Nc3ccccc3)ncnc21 (some centres undefined) | 17.4 µM | 1.76 µM | 0.155 | 3.17 | 0.406 | 0.0522 | 15.6 µM | 12.2 µM | 3.41 | 1.09 | 6.1 µM | 0.285 | 0.0864 | 0.651 µM | 0.0966 | 0.0262 | 6.49 µM | 2.71 | 0.909 | 0.187 µM |
| O=P(Oc1ccccc1)(Oc1ccccc1)C(O)c1ccccc1 (centres undefined) | > 100 µM | > 100 µM | > 100 | > 100 | > 100 | > 100 | > 100 µM | > 100 µM | > 100 | > 100 | > 100 µM | 33.3 | > 100 | 34.4 µM | 66.5 | 25.4 | > 100 µM | > 100 | > 100 | > 100 µM |
| O=C(Nc1ncc([N+](=O)[O-])s1)c1cccc([N+](=O)[O-])c1 | > 88.2 µM | 5.41 µM | > 100 | 88 | 22.7 | 65.9 | > 53.3 µM | > 100 µM | > 100 | > 78.2 | 3.02 µM | 1.43 | 3.66 | 10.7 µM | 3.7 | 3.18 | 2.73 µM | 12.4 | 3.32 | 2.87 µM |
| O=C(CCl)Nc1ccccc1SCc1cc(Cl)cc2c1OCOC2 | 15.4 µM | 40.6 µM | 5.1 | 23.3 | 32.6 | 4 | 21 µM | 27.7 µM | 84.8 | 31.2 | 3.41 µM | 6.96 | 2.16 | 8.55 µM | 5.5 | 1.85 | 6.69 µM | 13.5 | 17.5 | 9.58 µM |
| NCCCn1c2c(c3ccccc3c1=O)C(=O)c1cc3c(cc1-2)OCO3 | > 52.7 µM | 0.258 µM | 3.57 | 1.72 | 2.27 | 4.79 | 1.05 µM | 4.08 µM | 4.43 | 1.38 | 0.126 µM | < 0.0214 | 0.247 |  | 0.247 | 0.474 | 0.276 µM | 1.54 | 1.05 | 0.324 µM |
| CS(=O)(=O)c1ccc(Oc2nccc(-c3c(-c4ccc(F)cc4)ncn3C3CCNCC3)n2)cc1 | > 25 µM | > 25 µM | > 25 | > 25 | > 25 | > 25 | > 25 µM | > 25 µM | > 25 |  | > 25 µM | > 25 | > 25 | > 25 µM | > 25 | > 25 | > 25 µM | > 25 | > 25 |  |
| OCc1ccc(N(Cc2ccc(F)cc2)C2CCC2)cc1Cl | 10.9 µM | 25.4 µM | 29.3 | 24.8 | 4.02 | 28.6 | 24.4 µM | 0.495 µM | 27.8 | 25.4 | 0.178 µM | 3.03 | 15.1 | 12.2 µM | 0.619 | 13 | 11.8 µM | 0.106 | 12.7 | 9.41 µM |
| C=C1C(=O)OC2C1C(OC(=O)/C(C)=C/C)CC(O)(CCl)C1C(OC(C)=O)C=C(C)C21O (centres undefined) | 19.8 µM | 31.3 µM | 20.7 | 64.6 | 17.7 | 5.94 | 40.4 µM | 31.9 µM | 61 | 34.1 |  |  |  |  |  |  |  |  |  |  |
| COc1cc2c3c(n(CCCO)c(=O)c2cc1OC)-c1cc2c(cc1C3=O)OCO2 | > 100 µM | > 78 µM | 22.9 | > 79.1 | > 19.6 | > 100 | > 54.3 µM | > 100 µM | > 53.4 | 28.3 | 2.94 µM | 11.6 | 2.89 | 16.1 µM | 0.465 | > 40.8 | 3.53 µM | > 79.2 | 3.95 | 6.75 µM |
| Nc1nc(SCC(=O)O)[nH]c(=O)c1N | > 100 µM | 99.7 µM | 42.8 | > 100 | > 100 | > 100 | 30.5 µM | > 100 µM | > 100 | > 100 |  |  |  |  |  |  |  |  |  |  |
| COc1ccc(/C=C\c2cc(OC)c(OC)c(OC)c2)cc1NC(=O)[C@@H](N)CO | > 100 µM | 20.8 µM | > 100 | > 66.7 | > 100 | 0.0457 | > 100 µM | > 100 µM | 0.245 | > 100 | 0.0207 µM | 0.0276 | 0.0376 | < 0.0128 µM | < 0.01 | < 0.01 | 0.0468 µM | < 0.023 | 0.0205 | 0.033 µM |
| O=C(O)C(Cc1ccccc1-c1ccccc1)C(=O)O | > 100 µM | > 100 µM | > 100 | > 100 | > 100 | > 100 | > 100 µM | > 100 µM | > 100 | > 100 |  |  |  |  |  |  |  |  |  |  |
| COc1cc(/C=C2\CC(C)CC3C2=NN(c2ccccc2)C3c2cc(OC)c(OC)c(OC)c2)cc(OC)c1OC (centres undefined) | > 100 µM | 26.5 µM | 27.8 | 87.5 | > 100 | 59.3 | > 100 µM | > 100 µM | > 100 |  | 10.6 µM | 3 | 9.69 | 25.4 µM | 26.7 | 10.2 | 19.8 µM | 53.7 | 12.1 |  |
